# Data: patent publication US12599599B2, “Anti-inflammatory, anti-cancer, and anti-angiogenic compounds, pharmaceutical compositions, and methods of making and using thereof” (MEDICON PHARMACEUTICALS, INC., priority 2017, dated 2026)
# Key:
# [1] = system: VEGF-B; assay: Secreted VEGF in culture medium by ELISA; type: cell-based, human
# Procedure: (§1) The effect of compounds 2, 5, and 6 on VEGF production was examined. For example, SKOV-3 ovarian cancer cells grown in culture were treated with compound 5 1×IC50 for up to 24 h. Secreted VEGF was assayed in the culture medium by ELISA (R&D Systems). […] For example, at 24 h, the reduction of secreted VEGF-A over the corresponding controls was: OVCAR3=100%, A2780=86%, A2780cis=100%, and A2780ADR=100%. Compound 5 suppressed VEGF-B by 90-92% compared to control. The anti-VEFG effect of Compound 5 is as strong in the drug-resistant as in the drug-sensitive cell lines.
# [2] = system: VEGF-A; assay: Secreted VEGF in culture medium by ELISA; type: cell-based, human
# Procedure: as §1
smiles,measurement,setting,value
CCN(CC)CCCCNC(=O)c1ccccc1SC/C=C(\C)CC/C=C(\C)CCC=C(C)C [Compound 5],suppression of VEGF-B compared to control,[1],90-92%
same,reduction of secreted VEGF-A over controls,"[2]; A2780, 24 h",86%
same,reduction of secreted VEGF-A over controls,"[2]; A2780ADR, 24 h",100%
same,reduction of secreted VEGF-A over controls,"[2]; A2780cis, 24 h",100%
same,reduction of secreted VEGF-A over controls,"[2]; OVCAR3, 24 h",100%
same,suppression of secreted VEGF-A levels,"[2]; SKOV-3, 1×IC50, 6 hr",80%
same,suppression of secreted VEGF-A levels,"[2]; SKOV-3, 1×IC50, 24 hr",100%
